From PubChem BioAssay AID1845211 (Molecular Pharmacology Branch, DTP, NCI, 2023)
“And” between values parts separate entries of the source, which are not always exact repeats. Equal entries are not always repeated.

System: NCI-H322M multicellular tumor spheroids, viability (% test/control)
Assay: Anticancer human tumor NCI-H322M cell line growth inhibition;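 on viability, T/C: spheroids exposed to compound for seven days before readout; 100% = DMSO vehicle control wells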
Conditions: for viability, T/C: stronger effect = lower value
Description: Multicellular complex tumor spheroid response to DNA repair inhibitors in combination with DNA-damaging drugs
This study explores the anticancer activities of DNA-damaging drugs and inhibitors of DNA damage repair, both as single agents and in combinations. Complex tumor spheroids comprised of malignant cells, endothelial cells and mesenchymal stem cells served as an in vitro model for human solid tumors. This model system incorporates physiologically relevant features and patient-derived or established malignant cell lines with clinically relevant genetic alterations from many tumor types. Twenty-six patient-derived or established malignant cell lines were evaluated representing sarcoma, melanoma, small cell lung cancer (SCLC), non-small cell lung cancer (NSCLC), as well as bladder, ovarian and pancreatic cancers. The concentration ranges selected for each drug and investigational agent were based upon clinically achievable concentrations if the clinical Cmax of the agent was known.
Compounds. The drugs and compounds olaparib (NSC753686), talazoparib (NSC767125), berzosertib (NSC777718), elimusertib (NSC800525), nedisertib (NSC802822), VX-984 (NSC792969), AZD-1390 (NSC803789), temozolomide (NSC362856), topotecan (NSC609699), trabectedin (NSC813783), staurosporine (NSC755774), and gemcitabine (NSC613327) were obtained from the National Cancer Institute (NCI) Developmental Therapeutics Program Chemical Repository. The FDA-approved anticancer drug set is available from the Developmental Therapeutics Program at https://dtp.cancer.gov/organization/dscb/obtaining/available_plates.htm. […] The stock solutions were prepared in dimethyl sulfoxide (DMSO, Sigma-Aldrich, St. Louis, MO, cat. D2650) at 400-fold the tested concentration and stored at -70 degrees C. Prior to their use, the stock solutions were diluted in fresh medium and the final DMSO concentration in the assay was 0.25% (v/v). All drugs and investigational agents were tested over a range starting from a high concentration at or near the clinical Cmax and decreasing in half-log increments. If the clinical Cmax for an agent had not been determined, the highest concentration tested was 10 microM.
Cell Lines. The patient-derived cancer cell (PDC) lines: 156681-154-R-J1-PDC, 283228-195-R-J1-PDC, 287954-098-R-J1-PDC, 292921-168-R-J2-PDC, 349418-098-R-PDC, 425362-245-T-J1-PDC, 556581-035-R-J1-PDC, and BL0293-F563-PDC were received from the NCI Patient-Derived Models Repository (PDMR, https://pdmr.cancer.gov). The established cell lines HS-SY-2 (RRID:CVCL_8719), MPNST, and SYO-1 (RRID:CVCL_7146) were obtained from the Sloan Kettering Institute. The alveolar soft parts sarcoma cell line ASPS-1 (RRID:CVCL_S738) was established at the NCI and grown from internal seed stocks. The following established cell lines were purchased from the American Type Culture Collection (ATCC, Manassas, VA): G-401 (ATCC, cat. CRL-1441, RRID:CVCL_0270), SW982 (ATCC, cat. HTB-93, RRID:CVCL_1734), VA-ES-BJ (ATCC, cat. CRL-2138, RRID:CVCL_1785), NCI-H719 (ATCC, cat. CRL-5837, RRID:CVCL_1582), NCI-H196 (ATCC, cat. CRL-5823, RRID:CVCL_1509), NCI-H841 (ATCC, cat. CRL-5845, RRID:CVCL_1595), NCI-H1618 (ATCC, cat. CRL-5879, RRID:CVCL_1480), NCI-H1876 (ATCC, cat. CRL-5902, RRID:CVCL_1503), DMS 114 (ATCC, cat. CRL-2066; RRID:CVCL_1174), NCI-H211 (ATCC, cat. CRL-5824; RRID:CVCL_1529), and SW 1271 (ATCC, cat. CRL-2177, RRID:CVCL_1716). The small cell lung cancer cell line COR-L88 was purchased from Sigma-Aldrich (cat. 92031917-1VL, RRID:CVCL_1141). The non-small cell lung cancer cell lines NCI-H226 (RRID:CVCL_1544) and NCI-H322M (RRID:CVCL_1557) were established at the NCI and grown from internal seed stocks. Pooled donor human umbilical vein endothelial cells (HUVEC, Lonza, cat. CC-2519) and human mesenchymal stem cells (hMSC, Lonza, cat. PT-2501) were purchased from Lonza (Walkersville, MD).
Cell Culture. All cells were maintained in an incubator at 37 degrees C and 5% CO2 with 95% humidity. […]

[1] = compound alone, run of 12/12/2019

Structure (SMILES) | viability, T/C (compound 0.0316 µM) | viability, T/C (compound 0.1 µM) | viability, T/C (compound 0.316 µM) | viability, T/C (compound 1 µM) | viability, T/C (compound 3.16 µM) | viability, T/C (compound 10 µM) | IC50 (curve of compound) | viability, T/C (compound 0.0949 µM) | viability, T/C (compound 0.3 µM) | viability, T/C (compound 0.949 µM) | viability, T/C (compound 3 µM) | also measured
CC(C)n1c(=O)n(C)c2cnc3cc(F)c(-c4ccc(OCCCN5CCCCC5)nc4)cc3c21 | 60.1% and 96% and 88.1% | 80.2% and 82.2% and 112% | 70.4% and 78.7% and 83.2% | 73.2% and 102% and 112% | 76.8% and 85.2% and 87.2% | 56.8% and 79.3% and 85% | > 10 µM |  |  |  |  | 
CC1COCCN1c1cc(-c2ccnn2C)c2ccnc(-c3ccn[nH]3)c2n1 (centres undefined) | 53.9% and 67.8% and 58.9% | 40.6% and 54% and 49.9% | 29.4% and 41.8% and 36% | 29.7% and 35.6% and 33.4% | 29.8% and 38.9% and 33.5% | 32.7% and 44.9% and 37.6% | 0.0431 µM and 0.144 µM and 0.0714 µM |  |  |  |  | 
CC[C@@]1(O)C(=O)OCc2c1cc1n(c2=O)Cc2cc3c(CN(C)C)c(O)ccc3nc2-1 |  |  |  |  |  |  |  | 67.4% [middle of 10 runs] | 51.5% [middle of 10 runs] |  |  | viability, T/C (compound 0.003 µM): 89.7% [middle of 10 runs]; IC50 [1]: > 0.3 µM and 0.254 µM
CNCc1ccc(-c2cc(-c3nc(-c4ccc(S(=O)(=O)C(C)C)cc4)cnc3N)on2)cc1 |  |  |  |  |  |  | > 3 µM | 86.2% and 90.6% and 82.5% | 75.3% and 82.6% and 88.2% | 93% and 95.4% and 77.4% | 90.5% and 94.3% and 74.9% | viability, T/C (compound 0.00949 µM): 101% and 98.9% and 108%; viability, T/C (compound 0.03 µM): 92% and 104% and 77.6%
COc1cc(C)[nH]c(=O)c1CN1CCc2c(Cl)cc(C(OC)C3COC3)c(Cl)c2C1=O (centres undefined) | 104% and 96.2% and 98.2% | 87.7% and 103% and 84% | 89.9% and 91.7% and 80.2% | 74.3% and 84.4% and 89.6% | 93.3% and 91.8% and 102% | 82% and 96.2% and 93.1% | > 10 µM |  |  |  |  | 
COc1cc2c(cc1O)CCNC21CSC2c3c(OC(C)=O)c(C)c4c(c3C(COC1=O)N1C(O)C3Cc5cc(C)c(OC)c(O)c5C(C21)N3C)OCO4 (centres undefined) |  |  |  |  |  |  |  |  |  |  |  | viability, T/C (compound 94.9 pM): 90.7% [middle of 10 runs]; viability, T/C (compound 0.0003 µM): 90.7% [middle of 10 runs]; viability, T/C (compound 0.003 µM): 7.2% [middle of 10 runs]; IC50 [1]: 1.56 nM [middle of 8 runs]
COc1ccc([C@@H](O)c2cc(-c3ncnc4cc(N5CCOCC5)ccc34)c(F)cc2Cl)nn1 | 94.5% and 86.9% and 89% | 82% and 74.6% and 84.6% | 79.5% and 68% and 94.4% | 61.6% and 63.9% and 62.2% | 38.2% and 58.7% and 52.9% | 33.5% and 34.7% and 43.3% | 1.82 µM and 3.81 µM and 2.7 µM |  |  |  |  | 
Cc1cc(C)c(CNC(=O)c2cc(-c3ccc(CN4CCOCC4)cc3)cc3c2cnn3C2CCCC2)c(=O)[nH]1 | 93.2% and 96.5% and 81.3% | 101% and 84.8% and 89% | 90.7% and 96.1% and 79.9% | 101% and 88.8% and 98.1% | 96.1% and 117% and 84.2% | 117% and 114% and 102% | > 10 µM |  |  |  |  | 
Cc1sc2c(c1C)C(c1ccc(Cl)cc1)=NC(CC(=O)Nc1ccc(O)cc1)c1nnc(C)n1-2 (centres undefined) |  |  |  |  |  |  | > 3 µM | 122% and 129% and 130% | 112% and 114% and 116% | 86.2% and 95.3% and 76% | 75.4% and 80.9% and 64% | viability, T/C (compound 0.00949 µM): 106% and 134% and 101%; viability, T/C (compound 0.03 µM): 114% and 110% and 109%
Cn1ncnc1[C@H]1c2n[nH]c(=O)c3cc(F)cc(c23)N[C@@H]1c1ccc(F)cc1 |  |  |  |  |  |  | > 3 µM | 79.9% and 77.7% and 81% | 95.3% and 83.4% and 83% | 81.9% and 79.7% and 75.5% | 70% and 66.2% and 68.7% | viability, T/C (compound 0.00949 µM): 90.1% and 93.2% and 85.8%; viability, T/C (compound 0.03 µM): 88.6% and 91.6% and 90.2%
Cn1nnc2c(C(N)=O)ncn2c1=O |  |  |  |  |  |  |  |  |  |  |  | IC50 (compound alone, run of 12/02/2019): > 100 µM
O=C(c1cc(Cc2n[nH]c(=O)c3ccccc23)ccc1F)N1CCN(C(=O)C2CC2)CC1 |  |  |  |  |  |  | > 30 µM | 107% and 88% and 75.1% | 98.5% and 83.7% and 107% | 118% and 98.6% and 101% | 97.2% and 80.6% and 97.6% | viability, T/C (compound 9.49 µM): 97% and 89.6% and 92.4%; viability, T/C (compound 30 µM): 103% and 87% and 104%
[2H]c1nc(C)nc([2H])c1-c1cc(NC[C@@H](C)c2cccc3c(C(=O)NC)ccnc23)ncn1 | 78.5% and 92.3% and 103% | 84.9% and 85.2% and 114% | 81% and 104% and 97.4% | 85.9% and 101% (2×) | 84.4% and 87.3% and 106% | 88.4% and 85.9% and 108% | > 10 µM |  |  |  |  | 
